Measured values as given in publication PMC6843786, “Temporin-SHa and Its Analogs as Potential Candidates for the Treatment of Helicobacter pylori” (Biomolecules, 2019).
“Also recorded” adds a separate entry of the source. Where two headings read alike, the source gives them in different places. Non-standard residues stand in square brackets, D forms with d. Residues, ends and D or L forms follow the SMILES beside them.

Tests used:
[1] = tested on: clinical strains of H. pylori; settings: for MIC: MH + 10% FBS + 2% isovitale-X
Description: (§1) H. pylori used in this study were either the reference strain obtained from the American Type Culture Collection (ATCC 43504) or clinical strains received frozen from our collaborator Josette Raymond from Hospital Cochin, Paris. Strains were obtained from patients who underwent a gastroendoscopy performed for various gastro-intestinal disorders according to the recommendations of Haute Autorité de Santé (HAS). During the endoscopy, biopsy samples were taken from antrum and corpus. Samples were then crushed, and the material was used for bacterial culture and molecular methods. An antibiogram was performed and strains were then frozen at -80 °C in a broth with 10% glycerol. Bacteria were cultured as previously described. Briefly, H. pylori (ATCC 43504) was cultured in brain heart infusion (BHI) and incubated at 37 °C for 16 h in microaerophilic condition in BD GasPak EZ using BD GasPak EZ CampyPak container system sachets (BD Biosciences, Le Pont-de-Claix, France). For clinical strains, a sample from the frozen bacteria was streaked on Blood Agar (Base) (Sigma-Aldrich, Illkirch-Graffenstaden, France) supplemented with 5% horse defibrinated blood (Fisher Scientific, Les Ulis, France) and 2% isovitale-X (Fisher Scientific, Illkirch-Graffenstaden, France). The petri dishes were then incubated at 37 °C for 4–7 days in microaerophilic condition. Then, a colony is transferred to 3 mL Mueller Hinton (MH) broth supplemented with 10% fetal bovine serum (FBS) and 2% isovitale-X. The cultures were then incubated for 4–7 days until the bacteria grow before further experiments.
(§2) Briefly, after the growth of H. pylori in liquid culture the optical density (OD) of the bacterial suspensions were read at 600 nm and adjusted to one. Stock solutions of the peptides at 1 mM were prepared in sterile water. Bacteria were diluted in medium to reach bacterial density around 10^5 bacteria/mL. One-hundred microliters per well of bacterial suspension were then added into sterile polypropylene 96-well microplates (Greiner BioOne, Paris, France) and exposed to increasing concentrations of peptides (from zero to 100 µM, 1:2 serial dilution). […] Plates were incubated at 37 °C for 24 h for H. pylori (ATCC 43504) and for 4–7 days for the clinical strains. H. pylori was tested in microaerophilic conditions generated using micro-anaerobic BD GasPak system. At the end of the incubation, OD600nm was measured using microplate reader (Synergy Mx, Biotek, Colmar, France). The MIC was defined as the lowest concentration of drug that inhibited visible growth of the organism. Experiments were conducted in independent triplicate (n = 3).

H. pylori (ATCC 43504) [2] = tested on: H. pylori (ATCC 43504)
Description: as §1, §2

[3] = tested on: total lipids extracted from H. pylori (ATCC 43504); test: Lipid insertion assay (lipid monolayer, critical pressure of insertion); design: species or system biophysical; settings: peptide 1 µM, PBS pH 7.4, from the line fits of Figure 4
Protocol: Peptide-lipid interaction was measured using reconstituted lipid monolayer at the air-water interface as previously described. Total lipids were extracted from overnight cultures of H. pylori (ATCC 43504) using Folch extraction procedure as previously described. Extracted total lipids were dried, resolubilized in chloroform:methanol (2:1, v/v) and stored at -20 °C under nitrogen. For peptide-lipid interaction assay, total lipid extract was spread using a 50 μL Hamilton's syringe at the surface of 800 μL of sterile PBS creating a lipid monolayer at the air-water interface. Lipids were added until the surface pressure reached the desired value. […] The variation of the surface pressure caused by peptide injection was then continuously monitored using a fully automated microtensiometer (μTROUGH SX, Kibron Inc., Helsinki, Finland) until reaching equilibrium (maximal surface pressure increase being usually obtained after 15-25 min). […] Variation of surface pressure was plotted as a function of initial surface pressure and the critical pressure of insertion of each peptide into H. pylori lipids was calculated as the theoretical value of initial pressure of lipid monolayer not permissive to peptide insertion, i.e., giving a variation of pressure equal to 0 mN/m.

N87 cells = test: In vitro toxicity assay using human gastric cells (resazurin); format: cell-based
Protocol: [26] Human gastric cells N87 (ATCC CRL-5822) were cultured in RPMI-1640 medium supplemented with 10% fetal calf serum (FCS), 1% L-glutamine and 1% antibiotics (all from Invitrogen, Carlsbad, CA, USA) and were routinely seeded onto 25 cm^2 flasks maintained in a 5% CO2 incubator at 37 °C. For the toxicity assay, cells grown on 25 cm^2 flasks were detached using trypsin–EDTA solution (from Thermofisher), counted using Mallasez counting chamber and seeded into 96-well cell culture plates (Greiner Bio-one) at approximately 10^4 cells per well. The cells were left to grow for 48–72 h at 37 °C in a 5% CO2 incubator until they reached confluence. Plates were then aspirated and increasing concentrations of peptides were added to the cells for 48 h at 37 °C in a 5% CO2 incubator, volume of water corresponding to the volume of peptides being used as negative control. At the end of the incubation, wells were aspirated, and cell viability was evaluated using resazurin-based in vitro toxicity assay kit (Sigma-Aldrich) following manufacturer’s instructions. Briefly, resazurin stock solution was diluted 1:10 in sterile PBS containing calcium and magnesium (PBS^++, pH 7.4) and empty wells were filled with 100 µL of the diluted solution. After 4 h incubation at 37 °C, fluorescence intensity was measured using microplate reader (Synergy Mx, Biotek) with an excitation wavelength of 530 nm and an emission wavelength of 590 nm. The fluorescence values were normalized by the controls and expressed as percent viability.

H. pylori (ATCC 43504) [4] = test: MIC after digestion by pepsin (resistance to pepsin)
Protocol: as §2
It is also rich with mucus to protect it from the aggressive acidity. For this reason, the impact of mucins and pepsin on the activity of the peptides was investigated. The impact of the gastric mucins on peptide activity was evaluated using a combination of commercial porcine stomach mucins MUC2 and MUC3 (Sigma–Aldrich) at a final concentration of 1 mg/mL sterilized using 0.2 µm filter. This concentration was used based on the estimated concentration of mucins present in the mucus in vivo [27]. The effect of mucins on peptides activity was evaluated by MIC and by time killing assay as explained below. The resistance of the peptides to pepsin was tested as previously described with some changes. […] This concentration was used since it corresponds the pepsin concentration in the stomach (0.5–1 mg/mL).

With `CC[C@H](C)[C@H](NC(=O)CNC(=O)[C@H](CO)NC(=O)[C@H](CC(C)C)NC(=O)[C@@H](N)Cc1ccccc1)C(=O)N[C@H](C(=O)NCC(=O)N[C@@H](CCSC)C(=O)N[C@@H](CC(C)C)C(=O)N[C@H](C)C(=O)N[C@@H](CCCCN)C(=O)N[C@@H](CC(C)C)C(=O)N[C@@H](Cc1ccccc1)C(N)=O)C(C)C` [NST1, H-Phe^1-Leu^2-Ser^3-Gly^4-Ile^5-Val^6-Gly^7-Met^8-Leu^9-D-Ala^10-Lys^11-Leu^12-Phe^13-NH2] (H-FLSGIVGML[dA]KLF-NH2) the “MIC values against resistant clinical strains (span over all strains)” value ([1]; all resistant clinical strains, MH + 10% FBS) was 6.25 to 12.5 µM, the MIC ([1]; clinical strain BM18, resistance Clari/Metro) was 12.5 µM and the MIC ([1]; clinical strain EM68, resistance Clari/Metro) was 12.5 µM. The MIC ([1]; clinical strain LN18, resistance Clari) was 6.25 µM, the MIC ([1]; clinical strain MF76, resistance Clari/Metro) was 12.5 µM and the MIC ([1]; clinical strain MP78, resistance Clari/Metro) was 12.5 µM. For the same compound, the MIC ([1]; clinical strain MS67, resistance Clari/Metro) was 12.5 µM, the MIC ([1]; clinical strain NM44, resistance Clari/Metro) was 6.25 µM and the “MIC on H. pylori (ATCC 43504)” value (H. pylori (ATCC 43504) [2]; MH medium, 24 h, microaerophilic) was 1.5 µM. For the same compound, the “MIC on H. pylori (ATCC 43504) in MH supplemented with 10% FBS” value (H. pylori (ATCC 43504) [2]; MH supplemented with 10% FBS) was 6.25 µM, the “critical pressure of insertion (CPI)” value [3] was 38.65 mN/m and the IC50 (N87 cells; 48 h incubation, resazurin cell viability, read-out: IC50 on N87 Cells) was 90.4 ± 10.4 µM. The “increase in toxicity to human gastric cells compared to temporin-SHa” value (N87 cells; from IC50 on N87 cells) was roughly 17 fold, the “MIC after Digestion by Pepsin” value (H. pylori (ATCC 43504) [4]; 4 h at 37 °C with pepsin 1 mg/mL in HCl pH 2) was 25 µM and the “resistance to pepsin (in words)” value (H. pylori (ATCC 43504) [4]; 4 h at 37 °C with pepsin 1 mg/mL, HCl pH 2) was “partial resistance towards pepsin; also recorded: partial resistance to the digestion by pepsin”.
